This is an account of results in patent publication US11236047B2 (ASTEX THERAPEUTICS LIMITED, priority 2017, dated 2022).

Where two headings read alike, the source gives them in different places.

Assay [1] has as its system SN40R2 cells. The experiment in a line: Protocol B: SN40R2 CellTiter-Glo luminescent cell viability assay. As to conditions: for inhibition at 10 µM: read-out: SN40R2 % inhibition at 10, Protocol B, SN40R2, at 10 μM; for inhibition at 3 µM: read-out: SN40R2 % inhibition at 3, Protocol B, SN40R2, at 3 μM. On the technique in general: Cellular ATP, detected with luciferase, serves as a proxy for viable cell number.

Assay [2] deals with MDM2-p53 interaction (Homo sapiens (Human), UniProt Q00987). As to conditions: for inhibition at 0.03 µM: read-out: MDM2 % inhibition @0.030; for inhibition at 0.001 µM: read-out: MDM2 % inhibition @0.0010; for inhibition at 0.003 µM: read-out: MDM2 % inhibition @0.0030; for inhibition at 0.1 µM: read-out: MDM2 % inhibition @0.10.
Chain of MDM2-p53 interaction (Q00987 whole entry): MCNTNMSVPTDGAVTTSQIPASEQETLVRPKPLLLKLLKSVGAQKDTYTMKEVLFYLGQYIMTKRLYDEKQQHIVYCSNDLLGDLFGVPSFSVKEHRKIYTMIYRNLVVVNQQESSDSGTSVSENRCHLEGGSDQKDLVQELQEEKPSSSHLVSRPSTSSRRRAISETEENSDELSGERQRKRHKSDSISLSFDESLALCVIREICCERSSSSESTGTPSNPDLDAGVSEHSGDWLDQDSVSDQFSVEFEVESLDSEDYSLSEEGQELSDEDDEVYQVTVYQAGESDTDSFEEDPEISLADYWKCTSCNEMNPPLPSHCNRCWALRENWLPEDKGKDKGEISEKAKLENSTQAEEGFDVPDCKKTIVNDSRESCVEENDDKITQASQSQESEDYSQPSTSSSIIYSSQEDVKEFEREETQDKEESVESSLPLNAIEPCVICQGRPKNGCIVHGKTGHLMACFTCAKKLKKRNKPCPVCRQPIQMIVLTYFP
Description: MDM2-053 Interaction Using a 96-Well Plate Binding Assay (ELISA)
The ELISA assay was performed in streptavidin coated plates which were preincubated with 200 μl per well of 1 μg ml^−1 biotinylated IP3 peptide. The plates were ready to use for MDM2 binding after washing the plate with PBS.
The bound HRP activity was measured by enhanced chemiluminesence (ECL™, Amersham Biosciences) using the oxidation of the diacylhydrazide substrate, luminol, to generate a quantifiable light signal. The percentage of MDM2 inhibition at a given concentration is calculated as the [1−(RLU detected in the compound treated sample−RLU negative DMSO control)÷(RLU of DMSO positive and negative controls)]×100 or as the (RLU detected in the compound treated sample÷RLU of DMSO controls)×100. The IC50 was calculated using a plot of % MDM2 inhibition vs concentration and is the average of two or three independent experiments.
Assay [3] has as its system SJSA-1 cells. Kind of assay: Protocol B: SJSA-1 CellTiter-Glo luminescent cell viability assay. As to conditions: for inhibition at 10 µM: Homo sapiens, SJSA-1, read-out: SJSA1 % inhibition at 10.
Where [4] appears, read: read-out: SJSA1 IC50 (μM) (Protocol B), SJSA-1, Protocol B.
Setting [5] is: read-out: SJSA1 IC50, Protocol B, SJSA-1.

In general, inhibition refers to the drop in the measured response relative to a control, in per cent. The term IC50 denotes the concentration that inhibits the measured activity by half.

With `Cc1c[nH]c(C(C)(O)c2cc(F)c3c(c2)C(=O)N(Cc2ccc(Cl)cn2)[C@@]3(OCC2(O)CC2)c2ccc(Cl)cc2)n1` (mixture of isomers) [Example 332, (3R)-3-(4-chlorophenyl)-2-[(5-chloropyridin-2-yl)methyl]-4-fluoro-6-[1-hydroxy-1-(4-methyl-1H-imidazol-2-yl)ethyl]-3-[(1-hydroxycyclopropyl)methoxy]-2,3-dihydro-1H-isoindol-1-one], the inhibition at 10 µM in assay [1] came out at 5%. Also, the inhibition at 0.03 µM in assay [2] came to 60%.
Take `CCC(O)(c1cc(F)c2c(c1)C(=O)N(Cc1ncc(Cl)cn1)[C@@]2(O[C@H]1CCOC1)c1ccc(Cl)cc1)C1CCNCC1` (single isomer, unassigned) [Example 448]: the inhibition at 30 µM in assay [1] (read-out: SN40R2 % inhibition at 30, Protocol B, SN40R2, at 30 μM) worked out at 48%. Also, in assay [2], the inhibition at 0.001 µM came out at 84%.
`CCC(O)(c1cc(F)c2c(c1)C(=O)N(Cc1ncc(Cl)cn1)[C@@]2(O[C@H]1CCOC1)c1ccc(Cl)cc1)C1CCN(C)CC1` (single isomer, unassigned) [Example 449]: the inhibition at 10 µM in assay [1] was 19%. For the same molecule, in assay [2], the inhibition at 0.001 µM amounted to 78%.
As to `CCCC(O)(c1cc(F)c2c(c1)C(=O)N(Cc1ccc(C#N)cn1)[C@@]2(O[C@H]1CCOC1)c1ccc(Cl)cc1)c1cn(C)cn1` (single isomer, unassigned) [Example 472], in assay [1], the inhibition at 10 µM came out at 10%. In assay [2], the inhibition at 0.003 µM was 48%.
For `CCC(O)(c1cc(F)c2c(c1)C(=O)N(Cc1ncc(Cl)cc1O)[C@@]2(O[C@H]1C[C@@H](O)C1)c1ccc(Cl)cc1)c1cn(C)cn1` (single isomer, unassigned) [Example 487], the inhibition at 10 µM in assay [1] stood at 12%. The inhibition at 0.001 µM in assay [2] was 59%.
In the same order, the values of `CCC(O)(c1cc(F)c2c(c1)C(=O)N(Cc1ccc(C#N)cn1)[C@@]2(OC)c1ccc(Cl)cc1)[C@H]1CC[C@H](O)CC1` (single isomer, unassigned) [Example 521] are 11% and 77%.
Turning to `CCC(O)(c1cc(F)c2c(c1)C(=O)N(Cc1ncc(Cl)cn1)[C@@]2(O[C@H]1C[C@@H](O)C1)c1ccc(Cl)cc1)C1(F)CCNCC1` (single isomer, unassigned) [Example 542], the inhibition at 10 µM in assay [1] was -1%. The inhibition at 0.01 µM in assay [2] (read-out: MDM2 % inhibition @0.010) worked out at 57%.
Take `CCC(O)(c1cc(F)c2c(c1)C(=O)N(Cc1ncc(Cl)cn1)[C@@]2(OC[C@@H](C)O)c1ccc(Cl)cc1)C1(F)CCNCC1` (single isomer, unassigned) [Example 543]: the inhibition at 10 µM in assay [1] was -6%. Further, in assay [2], the inhibition at 0.001 µM came to 68%.
Regarding `CCC(O)(c1cc(F)c2c(c1)C(=O)N(Cc1ncc(Cl)cn1)[C@@]2(OC)c1ccc(Cl)cc1)C1(F)CCNCC1` (single isomer, unassigned) [Example 544], in assay [1], the inhibition at 10 µM was 109%. The inhibition at 0.001 µM in assay [2] amounted to 86%.
As for `CCC(O)(c1cc(F)c2c(c1)C(=O)N(Cc1ncc(Cl)cn1)[C@@]2(OCC1(C#N)CC1)c1ccc(Cl)cc1)C1(F)CCNCC1` (single isomer, unassigned) [Example 545], the inhibition at 3 µM in assay [1] amounted to 4%. Further, the inhibition at 0.001 µM in assay [2] worked out at 94%.
On to `CCC(O)(c1cc(F)c2c(c1)C(=O)N(Cc1ccc(C#N)cn1)[C@@]2(O[C@H]1CCOC1)c1ccc(Cl)cc1)C1(F)CCNCC1` (single isomer, unassigned) [Example 546], for which the inhibition at 10 µM in assay [1] came to 17%. Besides, the inhibition at 0.001 µM in assay [2] amounted to 86%.
In the same order, the values of `CCC(O)(c1cc(F)c2c(c1)C(=O)N(Cc1ncc(C#N)cn1)[C@@]2(O[C@H]1CCOC1)c1ccc(Cl)cc1)C1(F)CCNCC1` (single isomer, unassigned) [Example 547] are 4% and 82%.
In the same order, the values of `CCC(O)(c1cc(F)c2c(c1)C(=O)N(Cc1ccc(Cl)cn1)[C@@]2(O[C@H]1CCOC1)c1ccc(Cl)cc1)C1(F)CCNCC1` (single isomer, unassigned) [Example 548] are 111% and 82%.
In the same order, the values of `CCC(O)(c1cc(F)c2c(c1)C(=O)N(Cc1ccc(Cl)cn1)[C@@]2(OC[C@@H](C)O)c1ccc(Cl)cc1)C1(F)CCNCC1` (single isomer, unassigned) [Example 549] are 33% and 85%.
As for `CCC(O)(c1cc(F)c2c(c1)C(=O)N(Cc1ncc(Cl)cn1)[C@@]2(OC)c1ccc(Cl)cc1)C1(F)CCN(C2COC2)CC1` (single isomer, unassigned) [Example 552], the inhibition at 10 µM in assay [1] is 7%. In addition, the inhibition at 0.001 µM in assay [2] was determined as 79%.
Consider `CN1CCC(C(C)(O)c2cc(F)c3c(c2)C(=O)N(Cc2ncc(Cl)cn2)[C@@]3(OCC2(F)COC2)c2ccc(Cl)cc2)CC1` (single isomer, unassigned) [Example 558], for which the inhibition at 10 µM in assay [1] is 6%. Also, the inhibition at 0.003 µM in assay [2] worked out at 53%.
In the case of `CCC(O)(c1cc(F)c2c(c1)C(=O)N(Cc1ncc(C#N)cn1)[C@@]2(O[C@H]1CCOC1)c1ccc(Cl)cc1)C1(F)CCN(C)CC1` (single isomer, unassigned) [Example 561], the inhibition at 10 µM in assay [1] came to 12%. For the same molecule, in assay [2], the inhibition at 0.001 µM was 47%.
On the same counts, the results for `CCC(O)(c1cc(F)c2c(c1)C(=O)N(Cc1ncc(Cl)cn1)[C@@]2(OC)c1ccc(Cl)cc1)C1(F)CCN(C)CC1` (single isomer, unassigned) [Example 563] are 72% and 76%.
With `CCC(O)(c1cc(F)c2c(c1)C(=O)N(Cc1ncc(Cl)cn1)[C@@]2(OCC1(C#N)CC1)c1ccc(Cl)cc1)C1(F)CCN(C)CC1` (single isomer, unassigned) [Example 564], the inhibition at 3 µM in assay [1] stood at 10%. The inhibition at 0.001 µM in assay [2] was 86%.
For the molecule `CCC(O)(c1cc(F)c2c(c1)C(=O)N(Cc1ncc(Cl)cn1)[C@@]2(OCCO)c1ccc(Cl)cc1)C1(F)CCN(C)CC1` (single isomer, unassigned) [Example 565], in assay [1], the inhibition at 10 µM came out at 11%. For the same molecule, in assay [2], the inhibition at 0.001 µM is 65%.
In the same order, the values of `CCC(O)(c1cc(F)c2c(c1)C(=O)N(Cc1ncc(Cl)cn1)[C@@]2(O[C@H]1C[C@@H](O)C1)c1ccc(Cl)cc1)C1(F)CCN(C)CC1` (single isomer, unassigned) [Example 570] are 26% and 83%.
`CCC(O)(c1cc(F)c2c(c1)C(=O)N(Cc1ncc(Cl)cn1)[C@@]2(O[C@H]1CCOC1)c1ccc(Cl)cc1)C1(F)CCN(C)CC1` (single isomer, unassigned) [Example 571]: the inhibition at 10 µM in assay [1] worked out at 38%. Besides, the inhibition at 0.001 µM in assay [2] was found to be 77%.
As to `COc1ccc(CN2C(=O)c3cc(C(C)(O)c4cnn(C)c4)cc(F)c3[C@]2(OCC2(O)CC2)c2ccc(Cl)cc2)nc1` (stereo partly drawn) [Example 228, (3R)-3-(4-chlorophenyl)-4-fluoro-6-[1-hydroxy-1-(1-methyl-1H-pyrazol-4-yl)ethyl]-3-[(1-hydroxycyclopropyl)methoxy]-2-[(5-methoxypyridin-2-yl)methyl]-2,3-dihydro-1H-isoindol-1-one], the IC50 in assay [3] (setting [4]) came to 0.21 µM. Moreover, in assay [2] (at 0.010 μM), the “MDM2 % at stated concentration” value came to 61%@0.010.
As for `COc1ccc(CN2C(=O)c3cc(C(C)(O)c4cnn(C)c4)cc(F)c3[C@]2(OCC2(O)CC2)c2ccc(Cl)cc2)nc1` (stereo partly drawn) [Example 347, (3R)-3-(4-chlorophenyl)-4-fluoro-6-[1-hydroxy-1-(1-methyl-1H-pyrazol-4-yl)ethyl]-3-[(1-hydroxycyclopropyl)methoxy]-2-[(5-methoxypyridin-2-yl)methyl]-2,3-dihydro-1H-isoindol-1-one], the IC50 in assay [3] (setting [4]) turned out to be 1.7 µM. The “MDM2 % at stated concentration” value in assay [2] (at 0.10 μM) came to 63%@0.10.
For `CCC(O)(c1cc(F)c2c(c1)C(=O)N(Cc1ncc(Cl)cn1)[C@@]2(OCC1(C(N)=O)CC1)c1ccc(Cl)cc1)c1cn(C)cn1` (stereo partly drawn) [Example 485, 1-({[(1R)-1-(4-chlorophenyl)-2-[(5-chloropyrimidin-2-yl)methyl]-7-fluoro-5-[1-hydroxy-1-(1-methyl-1H-imidazol-4-yl)propyl]-3-oxo-2,3-dihydro-1H-isoindol-1-yl]oxy}methyl)cyclopropane-1-carboxamide], the IC50 in assay [3] (setting [5]) is 4.2 µM. In addition, the inhibition at 0.1 µM in assay [2] is 58%.
As to `CCC(O)(c1cc(F)c2c(c1)C(=O)N(Cc1ccc(C#N)cn1)[C@@]2(OC[C@@H](C)O)c1ccc(Cl)cc1)C1(F)CCOCC1` (stereo partly drawn) [Example 498, 6-{[(1R)-1-(4-chlorophenyl)-7-fluoro-5-[1-(4-fluorooxan-4-yl)-1-hydroxypropyl]-1-[(2R)-2-hydroxypropoxy]-3-oxo-2,3-dihydro-1H-isoindol-2-yl]methyl}pyridine-3-carbonitrile], the inhibition at 10 µM in assay [3] came to 96%. For the same molecule, the inhibition at 0.1 µM in assay [2] was 32%.
On the same counts, the results for `CCC(O)(c1cc(F)c2c(c1)C(=O)N(Cc1ccc(C#N)cn1)[C@@]2(OCCO)c1ccc(Cl)cc1)C1(F)CCOCC1` (stereo partly drawn) [Example 500, 6-{[(1R)-1-(4-chlorophenyl)-7-fluoro-5-[1-(4-fluorooxan-4-yl)-1-hydroxypropyl]-1-(2-hydroxyethoxy)-3-oxo-2,3-dihydro-1H-isoindol-2-yl]methyl}pyridine-3-carbonitrile] are 16% and 21%.
On to `CCC(O)(c1cc(F)c2c(c1)C(=O)N(Cc1ccc(C#N)cn1)[C@@]2(OC1CC(O)C1)c1ccc(Cl)cc1)[C@H]1CC[C@H](O)CC1` (stereo partly drawn) [Example 520, 6-{[(1R)-1-(4-chlorophenyl)-7-fluoro-5-{1-hydroxy-1-[trans-4-hydroxycyclohexyl]propyl}-3-oxo-1-[cis-3-hydroxycyclobutoxy]-2,3-dihydro-1H-isoindol-2-yl]methyl}pyridine-3-carbonitrile], for which the IC50 in assay [3] (setting [5]) is 3.9 µM. The inhibition at 0.03 µM in assay [2] was 32%.
